For twelve compounds, Tm, ΔTm/mod and IC50 results are on record in US5466677A, “Dinucleoside phosphinates and their pharmaceutical compositions” (Ciba-Geigy Corporation, priority 1993, dated 1995).

Data set [1] has as its system complementary RNA sequences. The format is binding. Conditions: for Tm: pH 7; for ΔTm/mod: pH 7.0.
Data set [2] concerns human cytomegalovirus (HCMV) (strain AD 169). In words: plaque-reduction assay, HCMV in human embryonic fibroblasts. To be noted: Human betaherpesvirus 5, Fibroblast; HCMV strain AD 169, human embryonic fibroblasts, 7 to 10 days. The format is cell-based. How it is done:
(§1) Compounds prepared in some of the previous Examples are tested for antiviral activity against herpes simplex virus type 1 (HSV-1) (strain 17i) and human cytomegalovirus (HCMV) (strain AD 169) in vitro. Aqueous solutions of the compounds are prepared at concentrations between 10 mM and 50 mM. The solutions are stored at -70° C. after preparation and thawed prior to use in the antiviral assays. After thawing, the solutions are diluted to the appropriate concentration in the cell-culturemedium without prior filtration.
(§2) In a procedure similar to that described by Tyros et al, J. Antimicrob. Chemother., 8, 65-72 (1981), cell monolayers are infected with 20-200 plaque forming units and after virus adsorption the inoculum is replaced by maintenance medium containing different concentrations of the compound under investigation. Virus spread is prevented by the incorporation of 0.5% low gelling temperature agarose. At the end of a set period (2 or 3 days for HSV and 7 to 10 days for HCMV) monolayers are fixed, stained with methylene blue and plaque numbers determined.

The subject of data set [3] is herpes simplex virus type 1 (HSV-1) (strain 17i). In words: plaque-reduction assay, HSV-1 in Vero cells. Conditions: Human alphaherpesvirus 1, 2 or 3 days. Format: cell-based. The protocol:
as §1, §2

For “Example 90: TTT T*TC TCT CTC TCT, T*T unit derived from Compound 81B (TTTTTCTCTCTCTCT; one T*T dimer with modified linkage from Compound 81B, further chemistry not given here)”, in data set [1], the Tm came to 47.2 °C and the ΔTm/mod is -1.3 °C.

In the case of `CCOP(=O)(CC[C@H]1O[C@@H](n2cc(C)c(=O)[nH]c2=O)C[C@@H]1OC(=O)c1ccccc1)C[C@H]1C[C@H](n2cc(C)c(=O)[nH]c2=O)O[C@@H]1CO[Si](c1ccccc1)(c1ccccc1)C(C)(C)C` (stereo partly drawn) [Compound 13], the half-maximal inhibitory concentration (IC50) is 1 to 10 µM in data set [2] and 5 to 50 µM in data set [3].

In the case of `CCOP(=O)(CC[C@H]1O[C@@H](n2cc(C)c(=O)[nH]c2=O)C[C@@H]1O)C[C@H]1C[C@H](n2cc(C)c(=O)[nH]c2=O)O[C@@H]1CO[Si](c1ccccc1)(c1ccccc1)C(C)(C)C` (stereo partly drawn) [Compound 14], the IC50 is over 200 µM in data set [2] and 20 to 200 µM in data set [3].

In the case of “Example 87: TTT T*TC TCT CTC TCT, T*T unit derived from Compound 81 (hydrolysed) (TTTTTCTCTCTCTCT; T*T modified dimer unit from Compound 81 (hydrolysed), chemistry not fully specified)”, in data set [1], the Tm was 45.7 °C and the ΔTm/mod is -2.8 °C.

In the case of “Example 95: CTC GTA CT*T T*TC CGG TCC, T*T units derived from Compound 81 (hydrolysed) (CTCGTACTTTTCCGGTCC; two T*T dimers with modified linkage from hydrolysed Compound 81, further chemistry not given here)”, in data set [1], the Tm was 58.2 °C and the ΔTm/mod is -1.6 °C.

As to `CCOP(=O)(CC[C@H]1O[C@@H](n2cc(C)c(=O)[nH]c2=O)C[C@@H]1OC(=O)c1ccccc1)C[C@H]1C[C@H](n2cc(C)c(=O)[nH]c2=O)O[C@@H]1CO` (stereo partly drawn) [Compound 15], the IC50 was over 2 µM in data set [2] and over 5 µM in data set [3].

As to “Example 99: GCG T*TT *TT*T T*TT *TGC G, T*T indicating a unit derived from Compound 81 (hydrolysed) (GCGTTTTTTTTTTGCG; several T*T modified linkages from hydrolysed Compound 81, further chemistry not given here)”, in data set [1], the Tm came out at 39.6 °C and the ΔTm/mod is -1.8 °C.

Consider “Example 96: CTC GTA CT*T T*TC CGG TCC, T*T units derived from Compound 81 (CTCGTACTTTTCCGGTCC; T*T modified units from Compound 81, chemistry not fully specified)”, for which, in data set [1], the Tm worked out at 58.5 °C and the ΔTm/mod was -1.5 °C.

“Example 97: CTC GTA CT*T T*TC CGG TCC, T*T units derived from Compound 81A (CTCGTACTTTTCCGGTCC; T*T modified units from Compound 81A, chemistry not fully specified)”: in data set [1], the Tm worked out at 57.9 °C and the ΔTm/mod was -1.8 °C.

Turning to “Example 98: CTC GTA CT*T T*TC CGG TCC, T*T units derived from Compound 81B (CTCGTACTTTTCCGGTCC; T*T modified units from Compound 81B, chemistry not fully specified)”, in data set [1], the Tm is 58.8 °C and the ΔTm/mod was -1.3 °C.

As to “Example 89: TTT T*TC TCT CTC TCT, T*T unit derived from Compound 81A (TTTTTCTCTCTCTCT; one T*T dimer with modified linkage from Compound 81A, further chemistry not given here)”, in data set [1], the Tm is 45.7 °C and the ΔTm/mod was -3.3 °C.

Consider “Example 88: TTT T*TC TCT CTC TCT, T*T unit derived from Compound 81 (TTTTTCTCTCTCTCT; one T*T dimer with modified linkage from Compound 81, further chemistry not given here)”, for which, in data set [1], the Tm was 46.8 °C and the ΔTm/mod was -2.2 °C.
